Data as given in patent publication US4558054A, “Spasmolytic endo-8,8-dialkyl-8-azoniabicyclo (3.2.1) octane-6,7-exo-epoxy-3-alkyl-carboxylate salts” (priority 1983, dated 1985).
Read-outs that look alike come from different tables or passages of the source.

Columns and labels:
[1] = test system: isolated rat ileum (antagonist barium chloride); assay: Isolated rat ileum, spasmolytic (direct myolytic) activity vs barium chloride, pA2; assay type: cell-based; design: key to pA2, spasmolytic effect: pA2 = −log molar antagonist conc. halving BaCl2-induced contraction; conditions: for spasmolytic activity in words, rat ileum: compared with Buscopan; for pA2, spasmolytic effect: isolated rat ileum, barium chloride, 6 experiments, confidence limits P = 0.05; for Activity ratio: with respect to Buscopan (=1), antilogarithm of pA2 difference; for direct myolytic activity relative to Buscopan: Buscopan activity = 1
From the text: 1. Isolated rat ileum (antagonist barium chloride)
The spasmolytic activity of the compounds reported in Table 1 were studied firstly in a comparison with Buscopan (scopolamine butyl bromide), using the isolated rat ileum, by the classical Magnus method [Magnus and coll., Pflugers Gas. Physiol., 102, 123 (1904)], of which the smooth muscle was subjected to direct stimulation by barium chloride. The evaluation of this activity was made by the method involving the pA2 determination [Schild H. G., Brit. J. Pharmacol., 2, 189, (1947)]. The pA2 value is the negative logarithm of the molar concentration of the antagonist able to reduce the contraction induced by the antagonist (barium chloride) by 50%.
Spasmolytic effect evaluated on the isolated rat ileum with barium
chloride as antagonist, and expressed as the pA2 value.

[2] = test system: T1, isolated guinea pig ileum (antagonist acetyl choline) (Cavia porcellus); assay: Isolated guinea pig ileum, antimuscarinic activity vs acetyl choline, pA2; assay type: cell-based; conditions: with respect to Buscopan (=1)
T1 construct: antimuscarinic activity using the isolated guinea pig ileum; from tissue; host or cells: isolated guinea pig ileum
T1 sequence (H0W1Z3 1-590): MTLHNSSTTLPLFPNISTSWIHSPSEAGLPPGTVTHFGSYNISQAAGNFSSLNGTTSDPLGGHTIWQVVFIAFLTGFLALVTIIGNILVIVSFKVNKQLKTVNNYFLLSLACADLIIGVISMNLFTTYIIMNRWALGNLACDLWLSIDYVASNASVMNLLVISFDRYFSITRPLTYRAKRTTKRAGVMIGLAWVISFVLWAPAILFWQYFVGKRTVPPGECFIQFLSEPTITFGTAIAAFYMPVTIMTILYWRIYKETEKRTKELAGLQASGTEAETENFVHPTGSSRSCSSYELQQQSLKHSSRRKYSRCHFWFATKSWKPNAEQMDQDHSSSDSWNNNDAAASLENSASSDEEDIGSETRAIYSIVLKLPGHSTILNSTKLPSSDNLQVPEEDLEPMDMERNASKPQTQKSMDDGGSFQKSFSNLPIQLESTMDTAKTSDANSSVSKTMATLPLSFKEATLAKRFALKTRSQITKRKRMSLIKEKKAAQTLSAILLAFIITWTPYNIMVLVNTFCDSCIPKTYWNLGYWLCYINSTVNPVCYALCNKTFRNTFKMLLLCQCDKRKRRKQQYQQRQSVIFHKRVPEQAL
Procedure: (§1) 2. Isolated guinea pig ileum (antagonist acetyl choline)
(§2) 2. Isolated guinea pig ileum
(§3) All the compounds were also tested for antimuscarinic activity using the isolated guinea pig ileum, with acetyl choline as antagonist.
(§4) The potency of action was evaluated by calculating the pA2 values, as in the case of the direct myolytic activity evaluated on the isolated rat ileum.
(§5) Antimuscarinic activity evaluated on the isolated guinea pig ileum
(§6) with acetyl choline as antagonist, expressed as pA2 value.

[3] = biological target: T2, isolated guinea pig ileum (antagonist acetyl choline) (Cavia porcellus, UniProt H0W1Z3); assay: as above; assay type: cell-based; conditions: for antimuscarinic spasmolytic activity in words, compared with Buscopan / spasmolytic activity relative to Buscopan: vs Buscopan; for antimuscarinic activity in words, compared with atropine: vs atropine
T2 construct: antimuscarinic activity using the isolated guinea pig ileum; from tissue; host or cells: isolated guinea pig ileum
T2 sequence (H0W1Z3 1-590): as above
Procedure: as §1, §2, §3, §4, §5, §6

[4] = Intestinal transit in the mouse (inhibition of progression of opaque meal); conditions: in vivo, ip
Procedure: (§7) 3. Intestinal transit in the mouse
(§8) 3. intestinal transit in the mouse
(§9) An evaluation was made on the capacity of the studied compounds to inhibit the progression of an opaque meal 15 minutes after their intraperitoneal administration into the mouse. This test is indicative of undesirable side effects.
(§10) The method followed was the classical method of Janssen and Jageneau [Janssen P. A., Jageneau A. H., J. Pharm. Pharmacol. 9, 381 (1957)], by which the doses which inhibit the progression of the opaque meal through the small intestine by 50% (ED50) relative to the controls were calculated.
(§11) Activity affecting intestinal transit in the mouse after intra-
(§12) peritonal administration 15 minutes before taking the opaque

[5] = Acute toxicity in the mouse; assay type: in vivo; conditions: mouse, in vivo, ip; male mice (Swiss stock); Litchfield and Wilcoxon
Procedure: (§13) 5. Acute toxicity in the mouse
(§14) The acute toxicity of the compounds according to the invention was evaluated in comparison with that of Buscopan, atropine methyl bromide and syntropium bromide, after intraperitoneal administration in male mice (Swiss stock).
(§15) The LD50, the values of which together with the relative confidence limits (P=0.05) are given in Table 6, was calculated by the Litchfield and Wilcoxon method [Litchfield J. T., Wilcoxon F. A., J. Pharmac. Exp. Theor., 96, 99 (1949)].
(§16) Acute toxicity in the mouse after intraperitoneal administration

[6] = test system: mouse pupil (basal pupillary diameter); assay: Mydriatic activity in the mouse; assay type: in vivo; conditions: for mydriatic activity lower than atropine methyl bromide: vs atropine methyl bromide
Procedure: 4. Mydriatic activity in the mouse
The dose able to increase the basal pupillary diameter by 150% (ED150)15 minutes, 30 minutes, 60 minutes and 120 minutes after intraperitoneal administration of the compounds into the mouse was calculated.
Mydriatic activity evaluated in the mouse 15 minutes, 30 minutes, 60
minutes after intraperitoneal administration

[7] = test system: intestinal transit in the mouse; assay: Intestinal transit in the mouse (inhibition of progression of opaque meal); conditions: in vivo, ip
Procedure: as §7, §8, §9, §10, §11, §12

mouse = assay: Acute toxicity in the mouse; assay type: in vivo; conditions: compared with reference standards / Buscopan
Procedure: as §13, §14, §15, §16

[8] = Overall pharmacological screening (spasmolytic activity and side effects); conditions: intestinal transit and mydriatic effect in the mouse
Procedure: The study was conducted using the following in vitro and in vivo tests, each time in comparison with Buscopan, atropine methyl bromide and syntropium bromide: […]

[9] = mouse, i.p., 150% increase of basal pupillary diameter
[10] = isolated guinea pig ileum, acetyl choline, 6 experiments, confidence limits P = 0.05, read-out: pA2, antimuscarinic activity (converted)

| Structure (SMILES) | spasmolytic activity in words, rat ileum [1] | pA2, spasmolytic effect [1] | Activity ratio [1] | Activity ratio [2] | Kb [3] | ED50 [4] | LD50 [5] | ED150 after 15 min [6, 9] | ED150 after 30 min [6, 9] | ED150 after 60 min [6, 9] | acute toxicity in words (mouse) | also measured |
| --- | --- | --- | --- | --- | --- | --- | --- | --- | --- | --- | --- | --- |
| CCCC(CCC)C(=O)O[C@@H]1C[C@@H]2[C@H]3O[C@H]3[C@H](C1)[N@@+]2(C)CC [No. 12, endo-8-methyl-8-anti-ethyl-8-azoniabicyclo[3.2.1]octane-6,7-exo-epoxy-3-(2-propyl)pentanoate bromide] | activity similar to that of Buscopan | 6.66 | 0.7 | 0.50 | 93.3 nM | 42.2 mg/kg | 72 mg/kg |  |  |  |  | activity lower than Buscopan ([1]; vs Buscopan): 1.5 times lower |
| CCCC(CCC)C(=O)O[C@@H]1C[C@@H]2[C@H]3O[C@H]3[C@H](C1)[N+]2(C)C [No. 2, endo-8,8-dimethyl-8-azoniabicyclo[3.2.1]octane-6,7-exo-epoxy-3-(2-propyl)pentanoate bromide] | decidedly greater than those of Buscopan | 8.06 | 16.6 | 4.27 | 11 nM | 79 mg/kg | 93.5 mg/kg | 0.21 mg/kg/i.p. | 0.42 mg/kg/i.p. | 1.46 mg/kg/i.p. | decidedly lower toxicity | mydriatic activity lower than atropine methyl bromide [6]: 10 times less; direct myolytic activity relative to Buscopan [1]: 16.6 times; antimuscarinic spasmolytic activity in words, compared with Buscopan [3]: decidedly greater than those of Buscopan; spasmolytic activity relative to Buscopan [3]: 4.27 times; antimuscarinic activity in words, compared with atropine [3]: approaches that of atropine itself; antimuscarinic activity in words, compared with syntropium bromide ([3]; vs syntropium bromide): much higher than; reduction of intestinal transit in words [7]: reduce intestinal transit to a decidedly lesser extent; side effects in words [8]: lesser level of side effects |
| C[N+]1(C)[C@@H]2CC[C@H]1C[C@@H](OC(=O)C(CO)c1ccccc1)C2 (stereo partly drawn) [Atropine MeBr, atropine methyl bromide] |  |  |  |  |  | 52.1 mg/kg | 75 mg/kg | 0.030 mg/kg/i.p. | 0.030 mg/kg/i.p. | 0.052 mg/kg/i.p. |  |  |
| CCCC(CCC)C(=O)O[C@@H]1C[C@@H]2[C@H]3O[C@H]3[C@H](C1)[N@+]2(C)CC [No. 5, endo-8-methyl-8-syn-ethyl-8-azoniabicyclo[3.2.1]octane-6,7-exo-epoxy-3-(2-propyl)pentanoate bromide] | decidedly greater than those of Buscopan | 7.73 | 7.8 | 2.25 | 19.1 nM | 73.2 mg/kg | 74 mg/kg | 2.17 mg/kg/i.p. | 6.16 mg/kg/i.p. |  | lower toxicity | mydriatic activity lower than atropine methyl bromide [6]: > 100 times less; direct myolytic activity relative to Buscopan [1]: 7.8 times; antimuscarinic spasmolytic activity in words, compared with Buscopan [3]: decidedly greater than those of Buscopan; spasmolytic activity relative to Buscopan [3]: 2.45 times; antimuscarinic activity in words, compared with atropine [3]: approaches that of atropine itself; reduction of intestinal transit in words [7]: reduce intestinal transit to a decidedly lesser extent; side effects in words [8]: lesser level of side effects |
| CCCC[N+]1(C)[C@@H]2C[C@@H](OC(=O)[C@H](CO)c3ccccc3)C[C@H]1[C@@H]1O[C@@H]12 (stereo partly drawn) [Buscopan, scopolamine butyl bromide] |  | 6.84 |  |  |  | 51.7 mg/kg | 65 mg/kg | 3.24 mg/kg/i.p. | 3.29 mg/kg/i.p. | 3.66 mg/kg/i.p. |  | mydriatic activity over time, in words ([6]; mouse, i.p.): still possesses activity 120 minutes after its administration; ED150 after 120 min ([6]; mouse, i.p., 150% increase of basal pupillary diameter, 120 min): 5.32 mg/kg/i.p.; Kb [3, 10]: 46.8 nM |
| CCCC(CCC)C(=O)O[C@@H]1C[C@@H]2[C@H]3O[C@H]3[C@H](C1)[N@+]2(C)C(C)C [No. 8, endo-8-methyl-8-syn-(1-methyl)ethyl-8-azoniabicyclo[3.2.1]octane-6,7-exo-epoxy-3-(2-propyl)pentanoate bromide] | good spasmolytic activity | 5.72 | 0.08 | 0.15 | 302 nM | ~69 mg/kg | 78 mg/kg |  |  |  |  |  |
| CCCC(CCC)C(=O)OC1CC2CCC(C1)[N+]2(C)C(C)C (stereo not drawn) [Syntropium Br, syntropium bromide, reference compound] |  |  |  | 2.57 |  |  | 65 mg/kg |  |  |  |  | Kb [3, 10]: 18.2 nM; ED50 ([4]; 15 minutes before opaque meal, indicative of side effects, read-out: ED50, inhibition of progression of opaque meal by 50%): 29.8 mg/kg |
| CCCC[N@+]1(C)[C@@H]2C[C@@H](OC(=O)C(CCC)CCC)C[C@H]1[C@@H]1O[C@@H]12 [No. 10, endo-8-methyl-8-syn-butyl-8-azoniabicyclo[3.2.1]octane-6,7-exo-epoxy-3-(2-propyl)pentanoate bromide] |  |  |  |  |  | ~85 mg/kg | 105 mg/kg |  |  |  | decidedly lower toxicity |  |
